Article PMC3509132, “Global Epigenetic Changes Induced by SWI2/SNF2 Inhibitors Characterize Neomycin-Resistant Mammalian Cells” (PLoS ONE, 2012)
Like-named read-outs stand apart in the source and are kept apart here.

What was measured:
ADAAD [1] = target: T1, ADAAD (Bos taurus, UniProt Q9TTA5); conditions: ADAAD alone; His-ADAAD; ref Nongkhlaw et al. (Nongkhlaw, 2009); cited from earlier work
T1 sequence (Q9TTA5 229-940 limits assumed): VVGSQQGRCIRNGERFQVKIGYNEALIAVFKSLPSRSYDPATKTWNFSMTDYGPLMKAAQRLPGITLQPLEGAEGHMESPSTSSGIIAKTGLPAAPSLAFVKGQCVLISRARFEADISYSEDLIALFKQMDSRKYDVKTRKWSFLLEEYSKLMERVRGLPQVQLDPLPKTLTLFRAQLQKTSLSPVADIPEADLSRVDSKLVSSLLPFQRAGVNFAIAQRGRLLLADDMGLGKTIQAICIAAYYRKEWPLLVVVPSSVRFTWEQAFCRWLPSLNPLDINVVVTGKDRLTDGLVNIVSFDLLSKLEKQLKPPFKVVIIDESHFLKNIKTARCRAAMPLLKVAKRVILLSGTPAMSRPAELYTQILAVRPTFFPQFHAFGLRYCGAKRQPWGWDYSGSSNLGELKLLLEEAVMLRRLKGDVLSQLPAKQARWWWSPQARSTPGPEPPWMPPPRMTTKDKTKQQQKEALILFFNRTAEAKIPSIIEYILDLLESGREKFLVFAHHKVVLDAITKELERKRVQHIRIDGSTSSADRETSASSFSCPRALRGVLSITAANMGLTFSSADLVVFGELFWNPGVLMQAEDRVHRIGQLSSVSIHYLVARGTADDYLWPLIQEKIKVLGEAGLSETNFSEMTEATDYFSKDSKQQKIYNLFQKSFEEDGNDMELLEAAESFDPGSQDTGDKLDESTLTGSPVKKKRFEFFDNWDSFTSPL

ADAAD [2] = target: T1, ADAAD; assay: Intrinsic tryptophan fluorescence quenching binding titration with His-ADAAD
Method: His-ADAAD, used for binding studies, was purified as described previously. For mapping and CD studies, ADAAD as well as deletion constructs were expressed as GST-fusion protein in BL21 (DE3) cells and purified as described previously. In case of deletion constructs the GST-tag was not cleaved as the resultant proteins were not stable.
Fluorescence was measured at 25°C using Cary-Varian spectrofluorimeter as described previously. Stem-loop DNA (5′- […]-3′), synthesized by Sigma-Aldrich, was used in these studies. The intrinsic fluorescence quenching data obtained with acrylamide was analyzed using Stern-Volmer plots as described previously, [14].
To understand the interaction of ADAADi with ADAAD, a member of the SWI2/SNF2 family, we synthesized ADAADi using kanamycin and neomycin. These derivatives, ADAADiK and ADAADiN respectively, were purified and titrated with protein while monitoring the quenching of the intrinsic tryptophan fluorescence. […] This binding constant was same as that in the absence of ATP and slDNA. A similar result was obtained with ADAADiK (Figure S3A and S3B; Table 1). We thus conclude that the interaction of the inhibitor with ADAAD is independent of these two ligands.

Nc1ncnc2c1ncn2[C@@H]1O[C@H](COP(=O)(O)OP(=O)(O)OP(=O)(O)O)[C@@H](O)[C@H]1O [ATP]
Kd (ADAAD [1]): 1600 nM
Kd (ADAAD [2]): 100 ± 3 nM
fold higher affinity than in the absence of the inhibitor (ADAAD [2]; in the presence of ADAADiK): 10 fold
fold higher affinity than in the absence of the inhibitor (ADAAD [2]; in the presence of ADAADiN): 10 fold
